The experiment deals with T1, PHD2 (Homo sapiens, UniProt Q9GZT9).
T1 construct: FLAG-tagged full length PHD2 expressed in and purified from baculovirus-infected Sf9 cells; FLAG; made in house; host or cells: baculovirus-infected Sf9 cells
In words: PHD2 / HIF-1α peptide hydroxylation assay, time resolved fluorescence (VHL complex detection). It counts as biochemical. The conditions noted are these: FLAG-tagged full length PHD2; 0.2 μM 2-oxoglutarate, 0.5 μM HIF-1α peptide; read-out: PHD2 Activity (PHD2 binding activity expressed as IC50 (nM)). The procedure, abridged:
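Sf9-expressed FLAG-tagged full-length PHD2 (0.15 μg/ml) preincubated with compound 30 min at room temperature in Tris pH 7.4 buffer with 10 μM ferrous sulfate, 1 mM ascorbate and catalase. Reaction started with 0.2 μM 2-oxoglutarate and 0.5 μM biotinylated HIF-1α peptide (final); hydroxylation detected by time-resolved fluorescence via VHL complex binding.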

Molecules are shown by their SMILES. Structures can show the parent of a compound that is named as a salt. Bounds are passed on as bounds.

T1 sequence (Q9GZT9 whole entry): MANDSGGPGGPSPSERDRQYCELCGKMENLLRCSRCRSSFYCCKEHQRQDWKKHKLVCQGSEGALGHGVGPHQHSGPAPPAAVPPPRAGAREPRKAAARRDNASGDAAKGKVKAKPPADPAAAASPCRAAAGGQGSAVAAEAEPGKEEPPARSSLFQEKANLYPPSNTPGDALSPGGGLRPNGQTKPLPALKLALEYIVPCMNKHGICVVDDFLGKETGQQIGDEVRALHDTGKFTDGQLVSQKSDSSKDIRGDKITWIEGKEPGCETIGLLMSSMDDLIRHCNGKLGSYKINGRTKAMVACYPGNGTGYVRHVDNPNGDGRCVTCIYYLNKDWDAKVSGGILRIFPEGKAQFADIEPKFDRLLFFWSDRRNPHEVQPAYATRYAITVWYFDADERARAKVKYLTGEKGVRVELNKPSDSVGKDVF

With `CC[C@H](NC(=O)c1cnc(-c2nc(C)cs2)nc1O)c1ccccc1` [Example 41, 4-Hydroxy-2-(4-methyl-1,3-thiazol-2-yl)-N-[(1S)-1-phenylpropyl]pyrimidine-5-carboxamide], the IC50 lay in the range of 100 to 1000 nM.

For `COc1ccc(C(NC(=O)c2cnc(-c3cccnn3)nc2O)c2ccc(OC)cc2C)c(C)c1` [Example 175, N-[bis(4-methoxy-2-methylphenyl)methyl]-4-hydroxy-2-(pyridazin-3-yl)pyrimidine-5-carboxamide], the half-inhibitory concentration (IC50) is no more than 10 nM.

Take `CC(NC(=O)c1cnc(-n2cccn2)nc1O)[C@]12C[C@H]3C[C@H](C[C@H](C3)C1)C2` (stereo partly drawn) [Example 90, N-{(1R)-1-[(3S,5S,7S)-1-adamantyl]ethyl}-4-hydroxy-2-(1H-pyrazol-1-yl)pyrimidine-5-carboxamide]: the IC50 lay within 10 to 100 nM.

With `O=C(NC(Cc1ccccc1)c1ccccc1)c1cnc(-n2cccn2)nc1O` (stereo not shown) [Example 67, N-(1,2-diphenylethyl)-4-hydroxy-2-(1H-pyrazol-1-yl)pyrimidine-5-carboxamide], the 50% inhibitory concentration (IC50) is no more than 10 nM.

Consider `O=C(NCc1ccc(Oc2ccc(F)cc2)cc1)c1cnc(-n2cccn2)nc1O` [Example 99, N-[4-(4-fluorophenoxy)benzyl]-4-hydroxy-2-(1H-pyrazol-1-yl)pyrimidine-5-carboxamide], for which the IC50 is no more than 10 nM.

Turning to `O=C(NCc1ccc(F)cc1)c1cnc(-c2ccc(C(F)(F)F)cn2)nc1O` [Example 11, N-(4-fluorobenzyl)-4-hydroxy-2-[5-(trifluoromethyl)pyridin-2-yl]pyrimidine-5-carboxamide], the IC50 was 1000 to 10000 nM.

For `C[C@H](NC(=O)c1cnc(-n2cccn2)nc1O)c1ccc(C#N)cc1` [Example 113, N-[(1S)-1-(4-cyanophenyl)ethyl]-4-hydroxy-2-(1H-pyrazol-1-yl)pyrimidine-5-carboxamide], the IC50 was no more than 10 nM.

As to `C[C@H](NC(=O)c1cnc(-c2cccnn2)nc1O)c1ccc(-c2ccc(F)nc2)cc1` [Example 186, N-{(1S)-1-[4-(6-fluoropyridin-3-yl)phenyl]ethyl}-4-hydroxy-2-pyridazin-3-ylpyrimidine-5-carboxamide trifluoroacetate (salt)], the IC50 was no more than 10 nM.

In the case of `Cc1nc(-c2ncc(C(=O)Nc3ccc(F)cc3Cl)c(O)n2)cs1` [Example 38, N-(2-chloro-4-fluorophenyl)-4-hydroxy-2-(2-methyl-1,3-thiazol-4-yl)pyrimidine-5-carboxamide], the IC50 was in the range of 100 to 1000 nM.

For `COc1ccc(CC(NC(=O)c2cnc(-c3cccnn3)nc2O)c2ccc(C#N)cc2)cc1` (single isomer, unassigned) [Example 160, N-[1-(4-cyanophenyl)-2-(4-methoxyphenyl)ethyl]-4-hydroxy-2-(pyridazin-3-yl)pyrimidine-5-carboxamide], the concentration for half-maximal inhibition (IC50) was in the range of 10 to 100 nM.

Source of the values: patent US8278304B2, “Substituted 4-hydroxypyrimidine-5-carboxamides” (Merck Sharp & Dohme Corp., priority 2008, dated 2012).
